Values belong to the compound of their own block, whether it stands above or below them.
Key:
[1] = tested on: MDA-MB-231 breast cancer cells; assay: MTT cytotoxicity assay, MDA-MB-231; type: cell-based; settings: MDA-MB-231, MTT; for IC50 / viability at 0.312 µM / viability at 0.625 µM / viability at 1.25 µM / viability at 2.5 µM / viability at 5 µM / viability at 10 µM: Homo sapiens; for IC50: mean of three independent experiments ± SD, read-out: IC50 Value MDA-MB-231
Protocol: (§1) All newly synthetic compounds were tested for cytotoxicity using a six-dose MTT colorimetric assay on three cancer cell lines; namely, breast cancer cells (MDA-MB-231), colorectal adenocarcinoma cells (HT-29) and renal cancer cells (U-937). […] However, renal cancer cells (U-937) were discovered to be the least sensitive.
(§2) Using a six-dose MTT colorimetric assay, all new synthetic compounds were tested for cytotoxicity against three cancer cell lines: MDA-MB-231 breast cancer cells, HT-29 colorectal adenocarcinoma cells, and U-937 renal cancer cells. […] These cell lines were supplied by ATCC (American Type Culture Collection) via the Holding company for biological products and vaccines (VACSERA, Cairo, Egypt). The reference control used was Methotrexate. Detailed descriptions of the MTT colorimetric assay’s protocol can be found in the Supplementary file.
(§3) 1.1.In-vitro cytotoxicity screening
(§4) Using a six-dose MTT colorimetric assay, allnew synthetic compounds were tested for cytotoxicity against three cancer cell lines: MDA-MB-231 breast cancer cells,HT-29 colorectal adenocarcinoma cells, and U-937 renal […]
(§5) The cell lines were supplied by ATCC (American Type Culture Collection). The reference control used was Methotrexate. The cytotoxic activities of the examined compounds were quantified by inoculating a 96-well tissue culture plate with 1 X 10^5 cells / mL (100 uL/well) and incubating it at 37°C for 24 hours to develop a complete monolayer sheet. After forming a confluent sheet of cells, the growth medium was decanted from 96-well microtiter plates, and the cell monolayer was washed twice with wash media. Two-fold dilutions of tested samples were made in RPMI medium with 2% serum (maintenance medium), and 0.1 mL of each dilution was tested in different wells, with three wells serving as controls and receiving only maintenance medium. Following that, the plate was incubated at 37°C and examined. Cells were investigated for any physical signs of toxicity, such as partial or complete monolayer loss, rounding, shrinkage, or cell granulation. MTT solution was prepared (5mg/ml in PBS) (BIO BASIC CANADA INC), and 20 uL MTT solution was added to each well. After 5 minutes on a shaking table at150 rpm to thoroughly mix the MTT into the media, it was incubated (37°C, 5% CO2) for 4 hours to allow the MTT to be metabolized. Formazan (MTT metabolic product) was resuspended in 200 uL DMSO and shaken at 150 rpm for 5 minutes to thoroughly mix the formazan into the solvent. The optical density was measured at 560 nm, and the background was subtracted at 620 nm. Finally, the IC50 of the test compound in comparison to the reference was calculated using the GraphPad Prism software. […]

[2] = tested on: HT-29 colorectal adenocarcinoma cells; assay: MTT cytotoxicity assay, HT-29; type: cell-based; settings: MTT; for Toxicity % / viability at 0.312 µM / viability at 0.625 µM / viability at 1.25 µM / viability at 2.5 µM / viability at 5 µM / viability at 10 µM: HT29; for viability at 0.312 µM / viability at 0.625 µM / viability at 1.25 µM / viability at 2.5 µM / viability at 5 µM / viability at 10 µM / IC50: Homo sapiens, HT-29; for IC50: mean of three independent experiments ± SD, read-out: IC50 Value HT-29
Protocol: as §1, §2, §3, §4, §5

[3] = MTT cytotoxicity assay, U-937; type: cell-based; settings: Homo sapiens, U-937, U937, MTT;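 further: Six-dose MTT colorimetric assay on cell monolayers, formazan absorbance read at 560 nm with 620 nm background removed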
U-937 renal cancer cells = assay: MTT cytotoxicity assay, U-937; type: cell-based; settings: MTT; for IC50: Homo sapiens, U-937, mean of three independent experiments ± SD, read-out: IC50 Value U-937; for Toxicity %: U937;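 on all read-outs here: Six-dose MTT colorimetric assay on cell monolayers, formazan absorbance read at 560 nm with 620 nm background removed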
BRD4 (BD2) = target: T1, BRD4 (BD2) (Homo sapiens, UniProt O60885); assay: BRD4 inhibitory activity assay (AlphaLISA Bromodomain Assay); type: binding; settings: mean of three independent experiments; read-out: BRD4 IC50 ± SD;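 further: in vitro inhibition of recombinant BRD4 BD2 bromodomain binding to a BET bromodomain ligand, read by AlphaLISA proximity signal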
T1 construct: BRD4 (BD2) should be thawed on ice; purchased
Protocol: The BRD4 and PLK1 inhibitory assays were carried out in vitro in accordance with the manufacturer’s instructions; BRD4 was assessed using AlphaLISA Bromodomain Assay Protocol [67], and PLK1 kinase was tested using the ADP-Glo™ Kinase Assay Protocol [68], as detailed in the Supplementary file.
The BRD4 and PLK1 inhibitory assays were carried out in vitro in accordance with the manufacturer's instructions; BRD4 was assessed using AlphaLISA Bromodomain Assay Protocol [67], and PLK1 kinase was tested using the ADP-Glo™ Kinase Assay Protocol [68],
The master mixture was prepared as follows: N wells × (2.5 µL 3x BRD Homogeneous Assay Buffer 1 + 1 µL BET Bromodomain Ligand + 1.5 µL H2O). BRD4 (BD2) should be thawed on ice. Simply, the protein-containing tube was spined to recover the full content of the tube after the firstthaw. Both proteins should be aliquoted into single-use aliquots. Immediately, any remaining undiluted protein should be stored in aliquots at -80°C. BRD4 (BD2) was diluted in 1x BRD Homogeneous Assay Buffer 1 at 4 ng/µL. The diluted proteins were kept on ice until they were used. 5 µl of the master mixture is added to each well designated for the “Positive Control”, “Test Inhibitor”, and “Blank”. For the “Substrate Control”, 2.5 µL 3x BRD Homogeneous Assay Buffer 1 + 1 µL Non-acetylated Ligand 1 + 1.5 µL H2O is added. Each “Test Inhibitor” well received 2.5 µL of inhibitor solution, while the “Positive
Control”, “Substrate Control”, and “Blank” wells received 2.5 µL of the same solution without inhibitor (inhibitor buffer). Then, the “Blank” well is filled with 2.5 µL of 1x BRD Homogeneous Assay Buffer 1. After that, GSH
10 µL per well is added, the plate isshaken, and itis incubated at room temperature for 30 minutes. Streptavidin-
10 µL is added per well and incubated at room temperature for further 15 – 30 minutes [67]. The Alpha counts were read using the EnVision® multimode plate reader with the standard Alpha detection settings.

human recombinant PLK1 = human recombinant PLK1 (Homo sapiens, UniProt P53350); assay: PLK1 inhibitory activity assay (ADP-Glo Kinase Assay); type: biochemical; settings: mean of three independent experiments; read-out: PLK1 IC50 ± SD
human recombinant PLK1, sequence (P53350 whole entry): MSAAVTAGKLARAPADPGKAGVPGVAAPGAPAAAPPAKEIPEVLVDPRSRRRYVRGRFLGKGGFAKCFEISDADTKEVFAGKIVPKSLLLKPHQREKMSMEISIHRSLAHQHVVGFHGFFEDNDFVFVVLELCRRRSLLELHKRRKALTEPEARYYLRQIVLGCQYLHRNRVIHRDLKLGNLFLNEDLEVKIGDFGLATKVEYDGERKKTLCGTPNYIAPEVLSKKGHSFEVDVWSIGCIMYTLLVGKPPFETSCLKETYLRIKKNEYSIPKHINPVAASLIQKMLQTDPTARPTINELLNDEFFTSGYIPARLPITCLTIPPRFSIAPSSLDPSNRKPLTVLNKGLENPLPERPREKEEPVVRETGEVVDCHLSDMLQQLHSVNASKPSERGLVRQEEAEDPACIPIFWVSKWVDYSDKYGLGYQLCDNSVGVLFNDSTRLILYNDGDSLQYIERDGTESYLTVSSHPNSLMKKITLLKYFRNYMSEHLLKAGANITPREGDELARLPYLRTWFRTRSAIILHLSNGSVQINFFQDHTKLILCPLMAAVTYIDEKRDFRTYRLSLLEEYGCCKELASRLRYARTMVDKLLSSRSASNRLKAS
Protocol: The BRD4 and PLK1 inhibitory assays were carried out in vitro in accordance with the manufacturer’s instructions; BRD4 was assessed using AlphaLISA Bromodomain Assay Protocol, and PLK1 kinase was tested using the ADP-Glo™ Kinase Assay Protocol, as detailed in the Supplementary file. […]
1.2.2. PLK1 inhibitory activity assay
The kinase reaction was performed with active human recombinant PLK1 and combined with the substrate dephosphorylated casein (positive control) using 1 X reaction buffer (40 mM Tris-HCl pH 7.4, 20 mM MgCl2, 0.1 mg/mL BSA, 1 mM DTT) and 20 μM ATP. The reaction was incubated at30°C for 45 minutes. The amount of ATP transferred was calculated using […] reagent from Promega according to the manufacturer’s instruction.
A plate-reading luminometer isused to measure the luminescence. […]

IC50 (BRD4 (BD2)): 0.179 ± 0.008 µM | IC50 (human recombinant PLK1): 0.041 ± 0.001 µM | melting point: > 300 °C
Structure (SMILES): COc1ccc(-c2cnc3c(n2)c(=O)[nH]c(=O)n3Cc2ccccc2)cc1 [Compound 9, 1-Benzyl-6-(4-methoxyphenyl)pteridine-2,4(1H,3H)-dione]
IC50 [1]: 2.07 ± 0.03 µM | viability at 0.312 µM ([1]; 0.312 uM): 99.7% | viability at 0.625 µM ([1]; 0.625 uM): 99.2% | viability at 1.25 µM ([1]; 1.25 uM): 86.2% | viability at 2.5 µM ([1]; 2.5 uM): 33% | viability at 5 µM ([1]; 5 uM): 13.5% | viability at 10 µM ([1]; 10 uM): 5.45% | Toxicity % ([1]; 0.312 uM): 0.266% | Toxicity % ([1]; 0.625 uM): 0.7979% | Toxicity % ([1]; 1.25 uM): 13.79% | Toxicity % ([1]; 2.5 uM): 66.98% | Toxicity % ([1]; 5 uM): 86.48% | Toxicity % ([1]; 10 uM): 94.55% | Toxicity % ([2]; 0.312 uM): 0.2584% | Toxicity % ([2]; 0.625 uM): 0.08613% | Toxicity % ([2]; 1.25 uM): 0.08613% | Toxicity % ([2]; 2.5 uM): 12.36% | Toxicity % ([2]; 5 uM): 68.22% | Toxicity % ([2]; 10 uM): 88.67% | viability at 0.312 µM ([2]; 0.312 uM): 99.7% | viability at 0.625 µM ([2]; 0.625 uM): 99.9% | viability at 1.25 µM ([2]; 1.25 uM): 99.9% | viability at 2.5 µM ([2]; 2.5 uM): 87.6% | viability at 5 µM ([2]; 5 uM): 31.8% | viability at 10 µM ([2]; 10 uM): 11.3% | IC50 [2]: 4.11 ± 0.05 µM | viability at 0.312 µM [3]: 99.8% | viability at 0.625 µM [3]: 100% | viability at 1.25 µM [3]: 98.6% | viability at 2.5 µM [3]: 77% | viability at 5 µM [3]: 42% | viability at 10 µM [3]: 19.3% | IC50 (U-937 renal cancer cells): 4.42 ± 0.18 µM | Toxicity % (U-937 renal cancer cells; 0.312 uM): 0.2179% | Toxicity % (U-937 renal cancer cells; 0.625 uM): 0% | Toxicity % (U-937 renal cancer cells; 1.25 uM): 1.416% | Toxicity % (U-937 renal cancer cells; 2.5 uM): 23.04% | Toxicity % (U-937 renal cancer cells; 5 uM): 58.01% | Toxicity % (U-937 renal cancer cells; 10 uM): 80.66%

melting point: 287 °C
Structure (SMILES): Cn1c(=S)[nH]c(=O)c2nc(-c3ccccc3)c(-c3ccccc3)nc21 [Compound 10, 1-Methyl-6,7-diphenyl-2-thioxo-2,3-dihydropteridin-4(1H)-one]
IC50 [1]: 3.4 ± 0.02 µM | viability at 0.312 µM ([1]; 0.312 uM): 100% | viability at 0.625 µM ([1]; 0.625 uM): 100% | viability at 1.25 µM ([1]; 1.25 uM): 98.8% | viability at 2.5 µM ([1]; 2.5 uM): 54.3% | viability at 5 µM ([1]; 5 uM): 26.3% | viability at 10 µM ([1]; 10 uM): 7.93% | Toxicity % ([1]; 0.312 uM): 0% | Toxicity % ([1]; 0.625 uM): 0% | Toxicity % ([1]; 1.25 uM): 1.197% | Toxicity % ([1]; 2.5 uM): 45.66% | Toxicity % ([1]; 5 uM): 73.67% | Toxicity % ([1]; 10 uM): 92.07% | Toxicity % ([2]; 0.312 uM): 0% | Toxicity % ([2]; 0.625 uM): 0% | Toxicity % ([2]; 1.25 uM): 2.239% | Toxicity % ([2]; 2.5 uM): 18.99% | Toxicity % ([2]; 5 uM): 41.09% | Toxicity % ([2]; 10 uM): 96.3% | viability at 0.312 µM ([2]; 0.312 uM): 100% | viability at 0.625 µM ([2]; 0.625 uM): 100% | viability at 1.25 µM ([2]; 1.25 uM): 97.8% | viability at 2.5 µM ([2]; 2.5 uM): 81% | viability at 5 µM ([2]; 5 uM): 58.9% | viability at 10 µM ([2]; 10 uM): 3.7% | IC50 [2]: 5.63 ± 0.13 µM | viability at 0.312 µM [3]: 99.5% | viability at 0.625 µM [3]: 99.8% | viability at 1.25 µM [3]: 99.9% | viability at 2.5 µM [3]: 95.8% | viability at 5 µM [3]: 85% | viability at 10 µM [3]: 34.9% | IC50 (U-937 renal cancer cells): 8.37 ± 0.23 µM | Toxicity % (U-937 renal cancer cells; 0.312 uM): 0.5447% | Toxicity % (U-937 renal cancer cells; 0.625 uM): 0.1634% | Toxicity % (U-937 renal cancer cells; 1.25 uM): 0.05447% | Toxicity % (U-937 renal cancer cells; 2.5 uM): 4.248% | Toxicity % (U-937 renal cancer cells; 5 uM): 15.03% | Toxicity % (U-937 renal cancer cells; 10 uM): 65.14%

Source: article PMC10535864, “Novel Aminopyrimidine-2,4-diones, 2-Thiopyrimidine-4-ones, and 6-Arylpteridines as Dual-Target Inhibitors of BRD4/PLK1: Design, Synthesis, Cytotoxicity, and Computational Studies” (Pharmaceuticals, 2023)
